US9737535B2, “Methods for treating cancer using TOR kinase inhibitor combination therapy comprising administering substituted pyrazino[2,3-b]pyrazines” (Signal Pharmaceuticals, LLC, priority 2014, dated 2017)

Tests used:
[1] = test system: caspase 3/7 activation in NCI-H441 cells; experiment: Caspase-Glo 3/7 assay; assay type: cell-based; settings: 24 hours post-treatment, normalized to DMSO control, combination at 1:1
Experimental: Cell lines were maintained in the growth medium recommended by ATCC (American Type Culture Collection). […] The compounds were serially diluted in DMSO from the highest concentration of 30 μM (single compounds and in combination with constant a constant ratio of 1:1). […] The percentage of induction of apoptosis was normalized to DMSO control (no compound).

HCC-70 = experiment: Anti-proliferation assay with +JQ1, Chalice synergy score; assay type: cell-based; settings: combination with +JQ1, average
Experimental: (§1) Cells were thawed from a liquid nitrogen preserved state.
(§2) The calculation for synergy score is provided below.
(§3) If T≧V0:100*[1−(T−V0)/(V−V0)]
(§4) Cells were grown, treated and analyzed as described above, and synergy was calculated using the Chalice Software (Zalicus, Inc., Cambridge Mass.), described above. Cell lines used included T47D (human ductal breast epithelial tumor cell line), MCF (adenocarcinoma breast cancer cell line), MDA-MM468 (adenocarcinoma breast cancer cell line), HCC-70 (carcinoma, ductal breast cancer cell line), SKBR-3 (adenocarcinoma breast cancer cell line), MM-453 (adenocarcinoma breast cancer cell line).

MCF-7 = experiment: as above; assay type: cell-based; settings: combination with +JQ1, average
Experimental: as §1, §2, §3, §4

MM-453 = experiment: as above; assay type: cell-based; settings: combination with +JQ1, average
Experimental: as §1, §2, §3, §4

MM-468 = experiment: as above; assay type: cell-based; settings: combination with +JQ1, average
Experimental: as §1, §2, §3, §4

SKBR-3 = experiment: as above; assay type: cell-based; settings: combination with +JQ1, average
Experimental: as §1, §2, §3, §4

[2] = test system: breast cancer cell line panel; experiment: Anti-proliferation assay, seventeen breast cancer cell line panel; assay type: cell-based; settings: single agent, cell lines where the GI50 reached inhibition levels of greater than fifty percent, read-out: median GI50
Description: Cells were thawed from a liquid nitrogen preserved state. […] After seventy-two hours, […] developed for endpoint analysis using ATPLite. […] The calculation for synergy score is provided below. […] Compound 1 had varying activity across the seventeen cell line panel.

T47-D = experiment: Anti-proliferation assay with +JQ1, Chalice synergy score; assay type: cell-based, human; settings: combination with +JQ1, average
Experimental: as §1, §2, §3, §4

[3] = test system: cancer cell lines (T47D, MCF, MDA-MM468, HCC-70, SKBR-3, MM-453); experiment: Anti-proliferation assay with +JQ1, cancer cell lines overall; assay type: cell-based; settings: treatment with +JQ1
Experimental: as §4

BT-20 = experiment: Anti-proliferation assay (ATPLite), Chalice synergy score; assay type: cell-based; parameters: scale not given here; settings: Compound 1 in combination with the named second active agent, 72 h, mean of n = 3 experiments in triplicate
Description: as §1, §2, §3

HCC-1500 = experiment: as above; assay type: cell-based; parameters: scale not given here; settings: Compound 1 in combination with the named second active agent, 72 h, mean of n = 3 experiments in triplicate
Description: as §1, §2, §3

HCC-1187 = experiment: as above; assay type: cell-based; parameters: scale not given here; settings: Compound 1 in combination with the named second active agent, 72 h, mean of n = 3 experiments in triplicate
Description: as §1, §2, §3

HCC-1806 = experiment: as above; assay type: cell-based; settings: Compound 1 in combination with the named second active agent, 72 h, mean of n = 3 experiments in triplicate
Description: as §1, §2, §3

MDA-MB-231 = experiment: as above; assay type: cell-based; settings: Compound 1 in combination with second active agent, mean self-cross + 2σ threshold 2.61
Description: as §1, §2, §3

HCC-1937 = experiment: as above; assay type: cell-based; settings: Compound 1 in combination with the named second active agent, 72 h, mean of n = 3 experiments in triplicate
Description: as §1, §2, §3

MDA-MB-157 = experiment: as above; assay type: cell-based; settings: Compound 1 in combination with second active agent, mean self-cross + 2σ threshold 4.68
Description: as §1, §2, §3

Hs-578-T = experiment: as above; assay type: cell-based; settings: Compound 1 in combination with second active agent, mean self-cross + 2σ threshold 4.09
Description: as §1, §2, §3

HCC70 = experiment: as above; assay type: cell-based; settings: Compound 1 in combination with second active agent; HCC-70; mean self-cross + 2σ threshold 3.45
Description: as §1, §2, §3

BT-549 = experiment: as above; assay type: cell-based; settings: Compound 1 in combination with the named second active agent, 72 h, mean of n = 3 experiments in triplicate
Description: as §1, §2, §3

BT-474 = experiment: as above; assay type: cell-based; settings: Compound 1 in combination with the named second active agent, 72 h, mean of n = 3 experiments in triplicate
Description: as §1, §2, §3

HCC-1428 = experiment: as above; assay type: cell-based; settings: Compound 1 in combination with the named second active agent, 72 h, mean of n = 3 experiments in triplicate
Description: as §1, §2, §3

MDA-MB-436 = experiment: as above; assay type: cell-based; settings: Compound 1 in combination with second active agent, mean self-cross + 2σ threshold 1.91
Description: as §1, §2, §3

MCF7 = experiment: as above; assay type: cell-based; settings: Compound 1 in combination with second active agent, mean self-cross + 2σ threshold 3.07
Description: as §1, §2, §3

MDA-MB-468 = experiment: as above; assay type: cell-based; settings: Compound 1 in combination with second active agent, mean self-cross + 2σ threshold 4.66
Description: as §1, §2, §3

Compound	Synergy score (BT-20)	Synergy score (HCC-1500)	Synergy score (HCC-1187)	Synergy score (HCC-1806)	Synergy score (MDA-MB-231)	Synergy score (HCC-1937)	Synergy score (MDA-MB-157)	Synergy score (Hs-578-T)	Synergy score (HCC70)	Synergy score (BT-549)	Synergy score (BT-474)	Synergy score (HCC-1428)	Synergy score (MDA-MB-436)	Synergy score (MCF7)	Synergy score (MDA-MB-468)	other results
O=C(NOCC1CC1)c1ccc(F)c(F)c1Nc1ccc(I)cc1Cl [CI-1040]	–	–	–	–	–	–	–	–	–	–	–	–	–	–	–	% Caspase activation Mean (n = 3) ([1]; 0.1 μM): 98.6%; % Caspase activation Mean (n = 3) ([1]; 0.3 μM): 104.1%; % Caspase activation Mean (n = 3) ([1]; 1 μM): 96.6%; % Caspase activation Mean (n = 3) ([1]; 3 μM): 99.3%; % Caspase activation Mean (n = 3) ([1]; 10 μM): 103.9%; % Caspase activation Mean (n = 3) ([1]; 30 μM): 124.2%
CCN1C(=O)CNc2ncc(-c3ccc(-c4nc[nH]n4)nc3C)nc21 [Compound 1, 1-ethyl-7-(2-methyl-6-(1H-1,2,4-triazol-3-yl)pyridin-3-yl)-3,4-dihydropyrazino[2,3-b]pyrazin-2(1H)-one]	–	–	–	–	–	–	–	–	–	–	–	–	–	–	–	Chalice Calculated Synergy Scores, Averages (HCC-70): 12.05; Chalice Calculated Synergy Scores, Averages (MCF-7): 7.37; Chalice Calculated Synergy Scores, Averages (MM-453): 16.37; Chalice Calculated Synergy Scores, Averages (MM-468): 17.26; Chalice Calculated Synergy Scores, Averages (SKBR-3): 9.59; GI50 [2]: 140 nM; Chalice Calculated Synergy Scores, Averages (T47-D): 8.74; Synergism [3]: Synergism was observed
CO[C@H]1CC[C@H](N2C(=O)CNc3ncc(-c4ccc(C(C)(C)O)nc4)nc32)CC1 [Compound 2, 7-(6-(2-hydroxypropan-2-yl)pyridin-3-yl)-1-((1r,4r)-4-methoxycyclohexyl)-3,4-dihydropyrazino-[2,3-b]pyrazin-2(1H)-one]	–	–	–	–	–	–	–	–	–	–	–	–	–	–	–	Chalice Calculated Synergy Scores, Averages (HCC-70): 5.98; Chalice Calculated Synergy Scores, Averages (MCF-7): 2.07; Chalice Calculated Synergy Scores, Averages (MM-453): 7.03; Chalice Calculated Synergy Scores, Averages (MM-468): 11.58; Chalice Calculated Synergy Scores, Averages (SKBR-3): 6.14; % Caspase activation Mean (n = 3) ([1]; 0.1 μM): 69.9%; % Caspase activation Mean (n = 3) ([1]; 0.3 μM): 66.4%; % Caspase activation Mean (n = 3) ([1]; 1 μM): 67.7%; % Caspase activation Mean (n = 3) ([1]; 3 μM): 77.7%; % Caspase activation Mean (n = 3) ([1]; 10 μM): 80%; % Caspase activation Mean (n = 3) ([1]; 30 μM): 85.5%; Chalice Calculated Synergy Scores, Averages (T47-D): 4.02; Synergism [3]: Synergism was observed
O=C(Nc1cc(C(F)(F)F)cc(C(F)(F)F)c1)c1cc(Cl)ccc1O [IMD-0354]	1.85	1.42	1.86	7.45	6.14	6.42	4.80	3.35	0.88	2.68	1.77	0.51	3.94	2.88	3.80	–
C=CCn1c(=O)c2cnc(Nc3ccc(N4CCN(C)CC4)cc3)nc2n1-c1cccc(C(C)(C)O)n1 [MK1775]	5.01	2.46	1.30	0.55	2.31	7.93	2.68	9.02	12.10	2.99	9.61	3.25	1.45	5.76	7.69	–
NC1(c2ccc(-c3nc4ccn5c(=O)[nH]nc5c4cc3-c3ccccc3)cc2)CCC1 [MK-2206]	13.10	2.02	10.60	7.33	3.39	11.40	9.00	12.60	13.30	9.17	8.24	4.09	5.55	12.10	10.80	–
CC(C)C[C@H](NC(=O)CNC(=O)c1cc(Cl)ccc1Cl)B1OC(=O)C(CC(=O)O)(CC(=O)O)O1 [MLN9708]	3.67	2.26	1.79	4.31	2.27	3.84	2.91	1.68	2.16	4.47	0.75	2.59	2.77	0.39	3.00	–
O=C(NOC[C@H](O)CO)c1ccc(F)c(F)c1Nc1ccc(I)cc1F [PD0325901]	6.34	3.58	7.89	3.78	9.62	3.54	8.05	3.88	14.70	1.62	1.50	4.69	4.20	4.62	5.84	–
OCCn1cc(-c2cnc3nnn(Cc4ccc5ncccc5c4)c3n2)cn1 [PF-04217903]	0.05	0.11	0.17	0.39	0.53	0.44	0.75	1.12	0.33	0.04	0.57	0.31	0.08	0.20	1.09	–
COc1cc2c(NC3CCN(C4CCCCC4)CC3)nc(N3CCCN(C(C)C)CC3)nc2cc1OCCCN1CCCCC1 [UNC 0646]	2.59	1.11	0.22	0.53	0.49	0.54	1.05	2.20	2.03	0.91	1.13	1.66	0.66	3.27	2.08	–
COc1ccc(Cl)c(Nc2nc3ccccc3nc2NS(=O)(=O)c2cccc(NC(=O)C(C)(C)N)c2)c1 [XL147]	0.23	2.87	5.02	1.06	0.57	0.64	1.99	0.77	0.09	0.18	1.81	0.43	0.67	0.18	0.34	–
COCCn1c2c([n+](Cc3cnccn3)c1C)C(=O)c1ccccc1C2=O [YM155]	2.67	2.81	4.94	5.52	2.54	5.70	5.42	3.36	4.01	6.80	4.04	1.16	2.79	1.77	0.24	–
